Results from publication PMC8578332 (Scientific Reports, 2021).
Where a SMILES comes first, the peptide text is derived from it. Bridges are numbered along the chain shown (N, C = ends).

These compounds were tested against human α7-containing nAChRs (Homo sapiens, UniProt P36544) (assay: cell-based). Details: not given.
Format: cell-based

Sequence of human α7-containing nAChRs (P36544 23-502 limits assumed): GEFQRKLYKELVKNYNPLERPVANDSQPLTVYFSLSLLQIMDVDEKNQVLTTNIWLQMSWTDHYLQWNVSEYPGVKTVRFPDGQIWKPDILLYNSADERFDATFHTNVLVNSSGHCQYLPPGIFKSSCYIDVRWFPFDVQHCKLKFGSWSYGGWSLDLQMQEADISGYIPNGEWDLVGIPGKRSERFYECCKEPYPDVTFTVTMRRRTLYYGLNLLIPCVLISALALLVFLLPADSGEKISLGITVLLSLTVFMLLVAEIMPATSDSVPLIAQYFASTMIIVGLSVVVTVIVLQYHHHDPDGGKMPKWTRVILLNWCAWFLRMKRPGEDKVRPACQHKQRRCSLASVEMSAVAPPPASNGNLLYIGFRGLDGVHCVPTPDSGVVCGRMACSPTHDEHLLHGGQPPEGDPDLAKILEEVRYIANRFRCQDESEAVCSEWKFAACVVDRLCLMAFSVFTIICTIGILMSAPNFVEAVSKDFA

Compound	IC50 [µM]	Ratio (IC50 ratio between gAusIA/rAusIA and its corresponding analogues)	fold decrease (loss) in potency relative to wildtype of same isomer
CC(C)[C@H](NC(=O)[C@@H]1CSSC[C@@H]2NC(=O)[C@@H](NC(=O)[C@@H](N)CO)CSSC[C@H](NC(=O)[C@H](C)NC(=O)[C@@H]3CCCN3C(=O)[C@H](CC(N)=O)NC(=O)[C@H](C)NC(=O)[C@H](C)NC2=O)C(=O)N[C@@H](CCCNC(=N)N)C(=O)N[C@@H](Cc2c[nH]cn2)C(=O)N[C@@H](CC(N)=O)C(=O)N[C@@H](Cc2c[nH]cn2)C(=O)N2CCC[C@H]2C(=O)N1)C(N)=O [gAusIA [R5A]] (H-SCCAANPACRHNHPCV-NH2; disulfide 2-9, 3-15)	> 100		
CC(C)[C@H](NC(=O)[C@@H]1CSSC[C@H](NC(=O)CN)C(=O)N[C@H]2CSSC[C@H](NC(=O)[C@H](C)NC(=O)[C@@H]3CCCN3C(=O)[C@H](CC(N)=O)NC(=O)[C@H](CCCNC(=N)N)NC(=O)[C@H](C)NC2=O)C(=O)N[C@@H](CCCNC(=N)N)C(=O)N[C@@H](Cc2c[nH]cn2)C(=O)N[C@@H](CC(N)=O)C(=O)N[C@@H](Cc2c[nH]cn2)C(=O)N2CCC[C@H]2C(=O)N1)C(N)=O [rAusIA [S1G]] (H-GCCARNPACRHNHPCV-NH2; disulfide 2-15, 3-9)		2.00	two
CC(C)[C@H](NC(=O)[C@@H]1CSSC[C@H](NC(=O)[C@@H](N)CO)C(=O)N[C@H]2CSSC[C@H](NC(=O)[C@H](C)NC(=O)[C@H](C)NC(=O)[C@H](CC(N)=O)NC(=O)[C@H](CCCNC(=N)N)NC(=O)[C@H](C)NC2=O)C(=O)N[C@@H](CCCNC(=N)N)C(=O)N[C@@H](Cc2c[nH]cn2)C(=O)N[C@@H](CC(N)=O)C(=O)N[C@@H](Cc2c[nH]cn2)C(=O)N2CCC[C@H]2C(=O)N1)C(N)=O [rAusIA [P7A]] (H-SCCARNAACRHNHPCV-NH2; disulfide 2-15, 3-9)	> 100		

Same assay, conditions: SEM

Compound	IC50 [µM]
CC[C@H](C)[C@@H]1NC(=O)[C@H](CC(N)=O)NC(=O)[C@@H]2CCCN2C(=O)[C@H](CC(N)=O)NC(=O)[C@H](CC(N)=O)NC(=O)[C@H](C(C)C)NC(=O)[C@H](CCCNC(=N)N)NC(=O)[C@@H]2CSSC[C@H](NC(=O)[C@@H](NC(=O)CNC(=O)[C@@H](N)CO)CSSC[C@@H](C(N)=O)NC1=O)C(=O)N[C@@H](CO)C(=O)N[C@@H](CCCNC(=N)N)C(=O)N[C@@H](CC(N)=O)C(=O)N1CCC[C@H]1C(=O)N[C@@H](C)C(=O)N2 [rLsIA [∇R6]] (H-SGCCSRNPACRVNNPNIC-NH2; disulfide 3-18, 4-10)	66 ± 4.1
C[C@@H]1NC(=O)[C@@H]2CSSC[C@H](NC(=O)[C@H](C)NC(=O)[C@@H]3CCCN3C(=O)[C@H](CC(N)=O)NC(=O)[C@H](CCCNC(=N)N)NC1=O)C(=O)N[C@@H](CCCNC(=N)N)C(=O)N[C@@H](Cc1c[nH]cn1)C(=O)N[C@@H](CC(N)=O)C(=O)N[C@@H](Cc1c[nH]cn1)C(=O)N1CCC[C@H]1C(=O)N[C@H](C(N)=O)CSSC[C@H](NC(=O)[C@@H](N)CO)C(=O)N2 [rAusIA [∆16]] (H-SCCARNPACRHNHPC-NH2; disulfide 2-15, 3-9)	60 ± 9.9
CC(C)C[C@@H]1NC(=O)[C@H](CCCNC(=N)N)NC(=O)[C@@H]2CSSC[C@H](NC(=O)[C@@H](NC(=O)[C@@H](N)CO)CSSC[C@@H](C(=O)N[C@H](C(N)=O)C(C)C)NC(=O)[C@@H]3CCCN3C(=O)[C@H](Cc3c[nH]cn3)NC(=O)[C@H](CC(N)=O)NC1=O)C(=O)N[C@@H](C)C(=O)N[C@@H](CCCNC(=N)N)C(=O)N[C@@H](CC(N)=O)C(=O)N1CCC[C@H]1C(=O)N[C@@H](C)C(=O)N2 [rAusIA [H11L]] (H-SCCARNPACRLNHPCV-NH2; disulfide 2-15, 3-9)	30 ± 2.2
CC(C)[C@H](NC(=O)[C@@H]1CSSC[C@H](NC(=O)[C@@H](N)CO)C(=O)N[C@H]2CSSC[C@H](NC(=O)[C@H](C)NC(=O)[C@@H]3CCCN3C(=O)[C@H](CC(N)=O)NC(=O)[C@H](C)NC2=O)C(=O)N[C@@H](CCCNC(=N)N)C(=O)N[C@@H](Cc2c[nH]cn2)C(=O)N[C@@H](CC(N)=O)C(=O)N[C@@H](Cc2c[nH]cn2)C(=O)N2CCC[C@H]2C(=O)N1)C(N)=O [rAusIA [∆5]] (H-SCCANPACRHNHPCV-NH2; disulfide 2-14, 3-8)	51 ± 11.6
C[C@@H]1NC(=O)[C@@H]2CSSC[C@H](NC(=O)[C@H](C)NC(=O)[C@@H]3CCCN3C(=O)[C@H](CC(N)=O)NC1=O)C(=O)N[C@@H](CCCNC(=N)N)C(=O)N[C@@H](Cc1c[nH]cn1)C(=O)N[C@@H](CC(N)=O)C(=O)N[C@@H](Cc1c[nH]cn1)C(=O)N1CCC[C@H]1C(=O)N[C@H](C(N)=O)CSSC[C@H](NC(=O)[C@@H](N)CO)C(=O)N2 [rAusIA [∆5 ∆16]] (H-SCCANPACRHNHPC-NH2; disulfide 2-14, 3-8)	27 ± 5.3
CC[C@H](C)[C@@H]1NC(=O)[C@H](CC(N)=O)NC(=O)[C@@H]2CCCN2C(=O)[C@H](CC(N)=O)NC(=O)[C@H](CC(N)=O)NC(=O)[C@H](C(C)C)NC(=O)[C@H](CCCNC(=N)N)NC(=O)[C@@H]2CSSC[C@H](NC(=O)CNC(=O)[C@@H](N)CO)C(=O)N[C@@H](CSSC[C@@H](C(N)=O)NC1=O)C(=O)N[C@@H](CO)C(=O)N[C@@H](CCCNC(=N)N)C(=O)N[C@@H](CC(N)=O)C(=O)N1CCC[C@H]1C(=O)N[C@@H](C)C(=O)N2 [gLsIA [∇R6]] (H-SGCCSRNPACRVNNPNIC-NH2; disulfide 3-10, 4-18)	8 ± 0.52
CC(C)[C@H](NC(=O)[C@@H]1CSSC[C@H](NC(=O)[C@@H](N)CO)C(=O)N[C@H]2CSSC[C@H](NC(=O)[C@H](C)NC(=O)[C@@H]3CCCN3C(=O)[C@H](CC(N)=O)NC(=O)[C@H](CO)NC2=O)C(=O)N[C@@H](CCCNC(=N)N)C(=O)N[C@@H](Cc2c[nH]cn2)C(=O)N[C@@H](CC(N)=O)C(=O)N[C@@H](Cc2c[nH]cn2)C(=O)N2CCC[C@H]2C(=O)N1)C(N)=O [rAusIA [A4S ∆5]] (H-SCCSNPACRHNHPCV-NH2; disulfide 2-14, 3-8)	29 ± 1.1
CC(C)[C@H](NC(=O)[C@@H]1CSSC[C@@H]2NC(=O)[C@@H](NC(=O)[C@@H](N)CO)CSSC[C@H](NC(=O)[C@H](C)NC(=O)[C@@H]3CCCN3C(=O)[C@H](CC(N)=O)NC(=O)[C@H](CCCNC(=N)N)NC2=O)C(=O)N[C@@H](CCCNC(=N)N)C(=O)N[C@@H](Cc2c[nH]cn2)C(=O)N[C@@H](CC(N)=O)C(=O)N[C@@H](Cc2c[nH]cn2)C(=O)N2CCC[C@H]2C(=O)N1)C(N)=O [gAusIA [∆4]] (H-SCCRNPACRHNHPCV-NH2; disulfide 2-8, 3-14)	1 ± 0.03
CC(C)[C@H](NC(=O)[C@@H]1CSSC[C@@H]2NC(=O)[C@@H](NC(=O)[C@@H](N)CO)CSSC[C@H](NC(=O)[C@H](C)NC(=O)[C@@H]3CCCN3C(=O)[C@H](CC(N)=O)NC(=O)[C@H](C)NC2=O)C(=O)N[C@@H](CCCNC(=N)N)C(=O)N[C@@H](Cc2c[nH]cn2)C(=O)N[C@@H](CC(N)=O)C(=O)N[C@@H](Cc2c[nH]cn2)C(=O)N2CCC[C@H]2C(=O)N1)C(N)=O [gAusIA [∆5]] (H-SCCANPACRHNHPCV-NH2; disulfide 2-8, 3-14)	0.59 ± 0.08
